Patent publication US9884063B2, “Amido-substituted azole compounds” (Bayer Pharma Aktiengesellschaft, priority 2014, dated 2018)
pIC50: −log10 of the molar value.

How the values were obtained:
TNKS2 = target: T1, TNKS2 (Homo sapiens, UniProt Q9H2K2); assay: Modified TNKS2 Assay 2 (auto-parsylation, [3H]-NAD+ SPA); assay type: biochemical; conditions: 6 nM TNKS2, 96 well
T1 sequence (Q9H2K2 1-1166): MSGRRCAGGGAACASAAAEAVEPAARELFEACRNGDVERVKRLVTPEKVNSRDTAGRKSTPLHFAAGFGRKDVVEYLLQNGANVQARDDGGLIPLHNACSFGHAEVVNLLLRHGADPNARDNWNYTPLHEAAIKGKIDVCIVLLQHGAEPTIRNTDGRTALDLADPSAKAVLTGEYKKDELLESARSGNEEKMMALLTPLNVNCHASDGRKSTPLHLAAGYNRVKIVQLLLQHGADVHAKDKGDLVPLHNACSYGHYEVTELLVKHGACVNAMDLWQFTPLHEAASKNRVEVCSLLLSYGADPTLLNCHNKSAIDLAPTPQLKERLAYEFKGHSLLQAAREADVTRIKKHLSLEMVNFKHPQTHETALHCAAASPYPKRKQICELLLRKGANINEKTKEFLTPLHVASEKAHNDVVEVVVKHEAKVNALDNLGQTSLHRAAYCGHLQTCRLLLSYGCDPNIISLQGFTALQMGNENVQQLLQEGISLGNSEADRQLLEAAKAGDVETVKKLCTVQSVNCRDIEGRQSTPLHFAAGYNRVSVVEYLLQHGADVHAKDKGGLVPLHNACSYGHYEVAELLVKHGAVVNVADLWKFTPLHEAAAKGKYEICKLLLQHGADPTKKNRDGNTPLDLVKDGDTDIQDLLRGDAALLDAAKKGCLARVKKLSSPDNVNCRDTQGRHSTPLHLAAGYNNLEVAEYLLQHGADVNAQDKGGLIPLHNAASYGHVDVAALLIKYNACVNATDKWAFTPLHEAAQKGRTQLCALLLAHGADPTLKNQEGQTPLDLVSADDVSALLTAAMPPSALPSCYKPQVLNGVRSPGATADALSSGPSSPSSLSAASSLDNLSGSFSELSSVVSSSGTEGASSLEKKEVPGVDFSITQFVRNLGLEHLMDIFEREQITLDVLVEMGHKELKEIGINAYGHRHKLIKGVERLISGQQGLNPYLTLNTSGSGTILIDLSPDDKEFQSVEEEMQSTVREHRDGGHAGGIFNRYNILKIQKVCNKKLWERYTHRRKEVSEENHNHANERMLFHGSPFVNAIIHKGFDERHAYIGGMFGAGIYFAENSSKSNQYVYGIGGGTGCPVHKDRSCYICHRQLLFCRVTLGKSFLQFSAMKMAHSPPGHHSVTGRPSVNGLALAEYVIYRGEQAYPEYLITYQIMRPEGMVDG

[1] = tested on: wildtype Wnt signaling cascade; assay: HEK293 TOP Assay (Super TopFlash luciferase reporter, Wnt-3a stimulated); assay type: cell-based; conditions: Homo sapiens, HEK293, 16 h
Method in brief: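 Compounds (50 μM down to 15 nM, 3.16-fold steps, in CAFTY buffer pH 7.4, 2 mM Ca2+, 0.01% BSA) tested in parallel on TOP and FOP HEK293 reporter lines to define selective wildtype Wnt inhibition. Pathway driven by recombinant human Wnt-3a applied at 2500–5 ng/ml in two-fold dilutions.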

[2] = HEK293 TOP reporter cell line, Wnt-3a at EC50, 16 hours incubation, compound dilution series 50 μM to 15 nM

| Structure (SMILES) | pIC50 (TNKS2) | pIC50 [1, 2] | pIC50 ([1]; HEK293 TOP reporter cells, Wnt3a at EC50, 16 hours, luciferase) |
| --- | --- | --- | --- |
| CNC(=O)c1nc[nH]c1C(=O)Nc1ccc(NC(=O)c2cc(F)c(F)cc2C)cc1 [Example 377, N^5-{4-[(4,5-difluoro-2-methylbenzoyl)amino]phenyl}-N^4-methyl-1H-imidazole-4,5-dicarboxamide] | 6.48 | 6.02 | – |
| O=C(Nc1ccc(NC(=O)c2[nH]cnc2C(=O)N2CC3(COC3)C2)cc1)c1cc(F)c(F)cc1Cl [Example 52, N-{4-[(2-chloro-4,5-difluorobenzoyl)amino]phenyl}-4-(2-oxa-6-azaspiro[3.3]hept-6-ylcarbonyl)-1H-imidazole-5-carboxamide] | 6.66 | 6.21 | – |
| CNC(=O)c1nc[nH]c1C(=O)Nc1ccc(NC(=O)c2c(C)cccc2F)cc1 [Example 375, N^5-{4-[(2-fluoro-6-methylbenzoyl)amino]phenyl}-N^4-methyl-1H-imidazole-4,5-dicarboxamide] | 5.92 | 5.95 | – |
| CNC(=O)c1nc[nH]c1C(=O)Nc1ccc(NC(=O)c2ccccc2Cl)c(F)c1 [Example 80, N^5-{4-[(2-chlorobenzoyl)amino]-3-fluorophenyl}-N^4-methyl-1H-imidazole-4,5-dicarboxamide] | 6.15 | 6.09 | – |
| CNC(=O)c1nc[nH]c1C(=O)Nc1ccc(NC(=O)c2ccc(F)c(Cl)c2F)cc1 [Example 359, N^5-{4-[(3-chloro-2,4-difluorobenzoyl)amino]phenyl}-N^4-methyl-1H-imidazole-4,5-dicarboxamide] | < 5.00 | 5.07 | – |
| CNC(=O)c1nc[nH]c1C(=O)Nc1ccc(NC(=O)c2cc(OC(F)(F)F)ccc2Br)cc1 [Example 64, N^5-(4-{[2-bromo-5-(trifluoromethoxy)benzoyl]amino}phenyl)-N^4-methyl-1H-imidazole-4,5-dicarboxamide] | < 5.00 | 5.84 | – |
| CC(C)N(CCNC(=O)c1nc[nH]c1C(=O)Nc1ccc(NC(=O)c2ccc(F)cc2Cl)cc1)C(C)C [Example 389, N^5-{4-[(2-chloro-4-fluorobenzoyl)amino]phenyl}-N^4-{2-[di(propan-2-yl)amino]ethyl}-1H-imidazole-4,5-dicarboxamide] | 6.55 | 6.12 | – |
| CNC(=O)c1nc[nH]c1C(=O)Nc1ccc(NC(=O)c2ncccc2C)cc1 [Example 356, N^4-methyl-N^5-(4-{[(3-methylpyridin-2-yl)carbonyl]amino}phenyl)-1H-imidazole-4,5-dicarboxamide] | 6.03 | 6.14 | – |
| CNC(=O)c1nc[nH]c1C(=O)Nc1ccc(NC(=O)c2cccc(F)c2OC)cc1 [Example 367, N^5-{4-[(3-fluoro-2-methoxybenzoyl)amino]phenyl}-N^4-methyl-1H-imidazole-4,5-dicarboxamide] | < 5.00 | 4.91 | – |
| CN(C)CCNC(=O)c1nc[nH]c1C(=O)Nc1ccc(NC(=O)c2ccc(F)cc2Cl)cc1 [Example 22, N^4-{4-[(2-chloro-4-fluorobenzoyl)amino]phenyl}-N^5-[2-(dimethylamino)ethyl]-1H-imidazole-4,5-dicarboxamide] | 7.70 | 6.85 | 6.89 |
| CNC(=O)c1nc[nH]c1C(=O)Nc1ccc(NC(=O)c2ccccc2OC)cc1 [Example 60, N^5-{4-[(2-methoxybenzoyl)amino]phenyl}-N^4-methyl-1H-imidazole-4,5-dicarboxamide] | < 5.00 | 4.81 | – |
| Cc1nc(C(=O)Nc2ccc(NC(=O)c3ccc(F)cc3Cl)cc2)c(C(=O)NCCN(C)C)[nH]1 [Example 66, N^4-{4-[(2-chloro-4-fluorobenzoyl)amino]phenyl}-N^5-[2-(dimethylamino)ethyl]-2-methyl-1H-imidazole-4,5-dicarboxamide] | 7.40 | 6.51 | – |
| Cc1nc(C(=O)Nc2ccc(NC(=O)c3ccc(F)cc3Cl)cc2)c(C(=O)NCCN2CCCCC2)[nH]1 [Example 67, N^4-{4-[(2-chloro-4-fluorobenzoyl)amino]phenyl}-2-methyl-N^5-[2-(piperidin-1-yl)ethyl]-1H-imidazole-4,5-dicarboxamide] | 7.52 | 7.15 | – |
| O=C(Nc1ccc(NC(=O)c2[nH]cnc2C(=O)NCCC2CCCC2)cc1)c1ccc(F)cc1Cl [Example 42, N^5-{4-[(2-chloro-4-fluorobenzoyl)amino]phenyl}-N^4-(2-cyclopentylethyl)-1H-imidazole-4,5-dicarboxamide] | < 5.00 | 5.64 | – |
| CNC(=O)c1nc[nH]c1C(=O)Nc1ccc(NC(=O)c2cc(Br)ccc2Cl)cc1 [Example 313, N^5-{4-[(5-bromo-2-chlorobenzoyl)amino]phenyl}-N^4-methyl-1H-imidazole-4,5-dicarboxamide] | 6.00 | 6.39 | – |

More lines, now with the values ahead:

| pIC50 (TNKS2) | pIC50 [1, 2] | pIC50 ([1]; HEK293 TOP reporter cells, Wnt3a at EC50, 16 hours, luciferase) | Structure (SMILES) |
| --- | --- | --- | --- |
| < 5.00 | 6.28 | – | O=C(Nc1ccc(NC(=O)c2[nH]cnc2C(=O)NCCC2CC2)cc1)c1ccc(F)cc1Cl [Example 43, N^5-{4-[(2-chloro-4-fluorobenzoyl)amino]phenyl}-N^4-(2-cyclopropylethyl)-1H-imidazole-4,5-dicarboxamide] |
| 6.82 | 6.10 | – | O=C(Nc1ccc(NC(=O)c2[nH]cnc2C(=O)NCCc2ccccn2)cc1)c1ccc(F)cc1Cl [Example 387, N^5-{4-[(2-chloro-4-fluorobenzoyl)amino]phenyl}-N^4-[2-(pyridin-2-yl)ethyl]-1H-imidazole-4,5-dicarboxamide] |
| 8.52 | 7.70 | – | C[C@@H]1CCCCN1CCNC(=O)c1[nH]cnc1C(=O)Nc1ccc(NC(=O)c2ccc(F)cc2Cl)cc1 [Example 267, N^4-{4-[(2-chloro-4-fluorobenzoyl)amino]phenyl}-N^5-{2-[(2R)-2-methylpiperidin-1-yl]ethyl}-1H-imidazole-4,5-dicarboxamide] |
| 6.51 | 8.00 | – | O=C(Nc1ccc(NC(=O)c2[nH]cnc2C(=O)NCCN2CCCCC2)cc1)c1ccc(F)cc1I [Example 62, N^5-{4-[(4-fluoro-2-iodobenzoyl)amino]phenyl}-N^4-[2-(piperidin-1-yl)ethyl]-1H-imidazole-4,5-dicarboxamide] |
| 5.10 | 4.30 | – | CNC(=O)c1nc[nH]c1C(=O)Nc1ccc(NC(=O)c2cc(F)ccc2OC)cc1 [Example 364, N^5-{4-[(5-fluoro-2-methoxybenzoyl)amino]phenyl}-N^4-methyl-1H-imidazole-4,5-dicarboxamide] |
| < 5.00 | 5.58 | – | O=C(Nc1ccc(NC(=O)c2[nH]cnc2C(=O)NCCC2CCCC2)cc1)c1cc(F)c(F)cc1Cl [Example 48, N^5-{4-[(2-chloro-4,5-difluorobenzoyl)amino]phenyl}-N^4-(2-cyclopentylethyl)-1H-imidazole-4,5-dicarboxamide] |
| 6.68 | 4.65 | – | CCNC(=O)c1nc[nH]c1C(=O)Nc1ccc(NC(=O)c2ncccc2Cl)cc1 [Example 261, N^5-(4-{[(3-chloropyridin-2-yl)carbonyl]amino}phenyl)-N^4-ethyl-1H-imidazole-4,5-dicarboxamide] |
| 8.30 | 7.05 | – | C[C@@H]1CCCN(CCNC(=O)c2[nH]cnc2C(=O)Nc2ccc(NC(=O)c3ccc(F)cc3Cl)cc2)C1 [Example 278, N^4-{4-[(2-chloro-4-fluorobenzoyl)amino]phenyl}-N^5-{2-[(3R)-3-methylpiperidin-1-yl]ethyl}-1H-imidazole-4,5-dicarboxamide] |
| 7.22 | 7.00 | – | CNC(=O)c1nc[nH]c1C(=O)Nc1ccc(NC(=O)c2ccc(F)cc2I)cc1 [Example 61, N^5-{4-[(4-fluoro-2-iodobenzoyl)amino]phenyl}-N^4-methyl-1H-imidazole-4,5-dicarboxamide] |
| < 5.00 | 4.30 | – | CNC(=O)c1nc[nH]c1C(=O)Nc1ccc(NC(=O)c2cc(C)ccn2)cc1 [Example 363, N^4-methyl-N^5-(4-{[(4-methylpyridin-2-yl)carbonyl]amino}phenyl)-1H-imidazole-4,5-dicarboxamide] |
